Measurements published in US11266739B2, “Methods and compositions for adoptive cell therapy” (Juno Therapeutics, Inc., priority 2014, dated 2022).
Numbering of substitutions follows the chain as printed. Numbers in names are those of the source.

B1: R31H: variant CAR junction region, replacement numbered per SEQ ID NO:5 (protein)
chain: FWVLVVVGGVLACYSLLVTVAFIIFWVKRGHKKLLYIFKQPFMRPVQTTQEEDGCSCRFPEEEEGGCEL
modifications: CD28-4-1BB
B2: L34S: variant CAR junction region, replacement numbered per SEQ ID NO:5 (protein)
chain: B1 chain with H31R, L34S
modifications: CD28-4-1BB
B3: L34A: variant CAR junction region, replacement numbered per SEQ ID NO:5 (protein)
chain: B1 chain with H31R, L34A
modifications: CD28-4-1BB

biological target: HLA-A*11:01 (Homo sapiens, UniProt P04439, A114D/D185E/E176A/F33Y/L180Q/S129P/T187R); assay: REVEAL Epitope Discovery System in vitro MHC-peptide binding assay, HLA-A*11:01; settings: binding normalized to positive control peptide set at 100%, score >50 considered good or high affinity binding
Protocol: (§1) Actual binding affinities for certain HLA class I alleles (A*02:01, A*03:01, A*11:01, and B*08:01) were assessed in vitro for exemplary overlapping 9 amino acid peptide sequences within a portion of the 26 amino acid junction region spanning the CD28 and 4-1BB junction. Specifically, assessment was of a series of overlapping 9-mer peptides derived from the sequence […] (set forth in SEQ ID NO: 7), which contains a portion of the CD28 transmembrane domain and 4-1BB costimulatory domain spanning the junction between the domains (bond joining the two amino acids noted in underline). In addition, a series of overlapping 9-mer peptides of each of a number of different variants of this portion also were assessed, each variant containing a mutation or mutations in this region as described in Example 2.
(§2) The various 9-mer overlapping peptides were synthesized and their purity tested by MALDI-TOF Mass Spectrometry. The synthetic peptides were then incubated with recombinant MHC molecules to assess binding properties using the REVEAL Epitope Discovery System, which is a high-throughput binding assay that measures the degree to which each peptide is able to stabilize a ternary MHC-peptide complex (ProImmune, Oxford, United Kingdom). Each peptide was separately tested for this ability with respect to each of the HLA class I alleles, normalized to the degree observed for a positive control (known T cell epitope for the relevant allele). The results are reported as a score, in which the binding was normalized to the positive control peptide set at 100%.

Row | Molecule | In Vitro Score (A*11:01)
1 | FWVARGRKK [junction 9-mer, peptide 6, mutation K29A] | 8.90
2 | IIFWVKRGA [junction 9-mer, peptide 4, mutation R32A] | 22.60
3 | IFWVKRGLK [junction 9-mer, peptide 5, mutation R32L] | 61.10
4 | IFWVHRGRK [junction 9-mer, peptide 5, mutation K29H] | 36.60
5 | WVKRGNKKL [junction 9-mer, peptide 7, mutation R32N] | 4.10
6 | IIFWVKRGL [junction 9-mer, peptide 4, mutation R32L] | 32.40
7 | VAFIIFWVS [junction 9-mer, peptide 1, mutation K29S] | 25.10
8 | IFWVKRGAK [junction 9-mer, peptide 5, mutation R32A] | 69.70
9 | VAFIIFWVK | 109.20
10 | WVKRGSKKL [junction 9-mer, peptide 7, mutation R32S] | 11.80
11 | WVKRGAKKL [junction 9-mer, peptide 7, mutation R32A] | 4.60
12 | AFIIFWVAR [junction 9-mer, peptide 2, mutation K29A] | 51.80
13 | VAFIIFWVR [junction 9-mer, peptide 1, mutation K29R] | 34.60
14 | IIFWVKRGR | 54.50
15 | IFWVKRGNK [junction 9-mer, peptide 5, mutation R32N] | 45.90
16 | IIFWVSRGR [junction 9-mer, peptide 4, mutation K29S] | 68.90
17 | IFWVKRGHK [junction 9-mer, peptide 5, mutation R32H] | 30.90
18 | IIFWVQRGR [junction 9-mer, peptide 4, mutation K29Q] | 72.80
19 | WVQRGRKKL [junction 9-mer, peptide 7, mutation K29Q] | 12.80

Row | Molecule | In Vitro Score (A*11:01)
20 | IIFWVQRGA [junction 9-mer, peptide 4, mutation K29Q/R32A] | 56.50
21 | FIIFWVHRG [junction 9-mer, peptide 3, mutation K29H] | 0.90
22 | IIFWVARGR [junction 9-mer, peptide 4, mutation K29A] | 70.60
23 | IIFWVLRGR [junction 9-mer, peptide 4, mutation K29L] | 35.20
24 | IFWVSRGRK [junction 9-mer, peptide 5, mutation K29S] | 39.20
25 | AFIIFWVSR [junction 9-mer, peptide 2, mutation K29S] | 54.00
26 | IFWVARGRK [junction 9-mer, peptide 5, mutation K29A] | 34.90
27 | IFWVQRGAK [junction 9-mer, peptide 5, mutation K29Q/R32A] | 61.30
28 | IIFWVHRGR [junction 9-mer, peptide 4, mutation K29H] | 77.50
29 | IFWVQRGNK [junction 9-mer, peptide 5, mutation K29Q/R32N] | 67.50
30 | IFWVKRGSK [junction 9-mer, peptide 5, mutation R32S] | 47.90
31 | IFWVQRGRK [junction 9-mer, peptide 5, mutation K29Q] | 128.50
32 | AFIIFWVHR [junction 9-mer, peptide 2, mutation K29H] | 34.90
33 | WVKRGHKKL [junction 9-mer, peptide 7, mutation R32H] | 2.80
34 | WVQRGNKKL [junction 9-mer, peptide 7, mutation K29Q/R32N] | 10.70
35 | IIFWVKRGN [junction 9-mer, peptide 4, mutation R32N] | 42.10
36 | WVARGRKKL [junction 9-mer, peptide 7, mutation K29A] | 13.80
37 | IIFWVKRGS [junction 9-mer, peptide 4, mutation R32S] | 100.00

system: HLA class I alleles (A*02:01, A*03:01, A*11:01, and B*08:01); assay: Comparison of in silico and in vitro binding of variant junction peptides to HLA class I alleles (summary); design: species or system human; settings: without higher binding affinity to another HLA allele or for another peptide
Protocol: as §1, §2
The results were compared to predicted binding (IC50) values obtained for binding of the same peptide:MHC complex, using the in silico prediction methods as described in Example 2. Since the maximum IC50 value predicted was about 50,000, the IC50 values were log transformed, subtracted from LOG(50000) and divided by LOG(50000) to obtain a normalized in silico score ((Log(50000)−log IC50)/Log(50000)). […]

Row | Molecule | predicted or actual binding affinity or score for at least one HLA allele and/or at least one peptide
38 | B1 | reduced
39 | B2 | reduced
40 | B3 | reduced

biological target: HLA-B*08:01 (Homo sapiens, UniProt P01889, A93T/A95T/D138N/E176V/E187T/K202T/Q94N/R180D/S35A/V36M/Y33D/Y91F); assay: REVEAL Epitope Discovery System in vitro MHC-peptide binding assay, HLA-B*08:01; settings: binding normalized to positive control peptide set at 100%, score >50 considered good or high affinity binding
Protocol: as §1, §2

Row | Molecule | In Vitro Score (B*08:01)
41 | IIFWVKRGA [junction 9-mer, peptide 4, mutation R32A] | 0.90
42 | IFWVKRGLK [junction 9-mer, peptide 5, mutation R32L] | 58.30
43 | IFWVHRGRK [junction 9-mer, peptide 5, mutation K29H] | 0.10
44 | WVKRGNKKL [junction 9-mer, peptide 7, mutation R32N] | 65.90
45 | IIFWVKRGL [junction 9-mer, peptide 4, mutation R32L] | 1.70
46 | VAFIIFWVS [junction 9-mer, peptide 1, mutation K29S] | 0.10
47 | IFWVKRGAK [junction 9-mer, peptide 5, mutation R32A] | 2.20
48 | VAFIIFWVK | 0.30
49 | WVKRGSKKL [junction 9-mer, peptide 7, mutation R32S] | 56.10
50 | WVKRGAKKL [junction 9-mer, peptide 7, mutation R32A] | 34.10
51 | AFIIFWVAR [junction 9-mer, peptide 2, mutation K29A] | 0.20
52 | VAFIIFWVR [junction 9-mer, peptide 1, mutation K29R] | 0.10
53 | IIFWVKRGR | 0.00
54 | IFWVKRGNK [junction 9-mer, peptide 5, mutation R32N] | 0.10
55 | IIFWVSRGR [junction 9-mer, peptide 4, mutation K29S] | 0.00
56 | IFWVKRGHK [junction 9-mer, peptide 5, mutation R32H] | 3.20
57 | IIFWVQRGR [junction 9-mer, peptide 4, mutation K29Q] | 0.10
58 | WVQRGRKKL [junction 9-mer, peptide 7, mutation K29Q] | 45.10

Row | Molecule | In Vitro Score (B*08:01)
59 | IIFWVQRGA [junction 9-mer, peptide 4, mutation K29Q/R32A] | 0.20
60 | FIIFWVHRG [junction 9-mer, peptide 3, mutation K29H] | 0.20
61 | IIFWVARGR [junction 9-mer, peptide 4, mutation K29A] | 0.30
62 | IIFWVLRGR [junction 9-mer, peptide 4, mutation K29L] | 0.40
63 | IFWVSRGRK [junction 9-mer, peptide 5, mutation K29S] | 0.00
64 | AFIIFWVSR [junction 9-mer, peptide 2, mutation K29S] | 0.30
65 | IFWVARGRK [junction 9-mer, peptide 5, mutation K29A] | 0.00
66 | IFWVQRGAK [junction 9-mer, peptide 5, mutation K29Q/R32A] | 0.20
67 | IIFWVHRGR [junction 9-mer, peptide 4, mutation K29H] | 0.20
68 | IFWVQRGNK [junction 9-mer, peptide 5, mutation K29Q/R32N] | 0.10
69 | IFWVKRGSK [junction 9-mer, peptide 5, mutation R32S] | 1.20
70 | IFWVQRGRK [junction 9-mer, peptide 5, mutation K29Q] | 0.00
71 | AFIIFWVHR [junction 9-mer, peptide 2, mutation K29H] | 0.30
72 | WVKRGHKKL [junction 9-mer, peptide 7, mutation R32H] | 47.60
73 | WVQRGNKKL [junction 9-mer, peptide 7, mutation K29Q/R32N] | 32.00
74 | IIFWVKRGN [junction 9-mer, peptide 4, mutation R32N] | 0.90
75 | WVARGRKKL [junction 9-mer, peptide 7, mutation K29A] | 32.40
76 | IIFWVKRGS [junction 9-mer, peptide 4, mutation R32S] | 0.40
